Laboratory results: patent US5880314A, “Hydrochalcone derivatives, cosmetic compositions containing said derivatives and methods of producing the same” (priority 1995, dated 1999)

What was measured:
[1] = system: B16 melanoma cells; assay: Melanoma cell depigmenting test (melanin production); type: cell-based; details: 5 days, control as 100%; for activity at 0.01 µg/mL / activity at 0.03 µg/mL / activity at 0.3 µg/mL: Mus musculus, B16, 120 h
Protocol: (Melanoma Cell Depigmenting Test)
Effect of compounds in suppressing melanin pigment synthesis was tested by measuring change in color of B16 melanoma cells when the cells were cultured at a concentration which had no adverse effect on growth of the cells. B16 Melanoma cells (1×10^5) were inoculated on 60 mm petri dishes. After 24 hours, 1,3-bis(2,4-dihydroxyphenyl)propane synthesized in Production Example 3, 1,3-bis(2,4-diacetoxyphenyl)propane synthesized in Production Example 4 and 1,3-bis(2,4-didodecanoyloxyphenyl)propane were added to the each medium, and incubation was curried out for 5 days. After incubation, the cells recovered by trypsin treatment were suspended in 0.3 ml of phosphate buffer and subjected to ultrasonic treatment for cell disruption, 0.3 ml of 4N NaOH was added to the treated suspension and the resultant suspension was incubated at 60° C. for 2 hours. Absorbance was measured at 400 nm and the amount of released melanin was calculated by setting the control as 100%. In Comparative Examples, similar tests were carried out using dihydrophloretin, a hydrochalcone compound, in place of the compounds of the present invention.

[2] = system: skin; details: combined in cosmetics; cited from earlier work
[3] = system: synthesis of melanin; details: reported in the literature; cited from earlier work

| Compound | activity at 0.01 µg/mL ([1]; 0.01 μg/ml) [%] | activity at 0.03 µg/mL ([1]; 0.03 μg/ml) [%] | activity at 0.3 µg/mL ([1]; 0.30 μg/ml) [%] | effect in suppressing the synthesis of melanin [3] | also measured |
| --- | --- | --- | --- | --- | --- |
| CC(=O)Oc1ccc(CCCc2ccc(OC(C)=O)cc2OC(C)=O)c(OC(C)=O)c1 [1,3-bis(2,4-diacetoxyphenyl)propane] | 44 | 18 | 11 |  |  |
| CCCCCCCCCCCC(=O)Oc1ccc(CCCc2ccc(OC(=O)CCCCCCCCCCC)cc2OC(=O)CCCCCCCCCCC)c(OC(=O)CCCCCCCCCCC)c1 [1,3-bis(2,4-didodecanoyloxyphenyl)propane] | 28 | 9 | 7 |  |  |
| Oc1ccc(CCCc2ccc(O)cc2O)c(O)c1 [1,3-bis(2,4-dihydroxyphenyl)propane] | 31 | 10 | 7 |  |  |
| Oc1ccc(OCc2ccccc2)cc1 [hydroquinone monobenzyl ether] |  |  |  |  | lightening of skin darkened with deposited pigment [2]: effectively lightened; side effects [2]: side effects such as skin allergies and irritation |
| O=C(CCc1ccc(O)cc1)c1c(O)cc(O)cc1O[C@@H]1O[C@H](CO)[C@@H](O)[C@H](O)[C@H]1O [phlorizin] |  |  |  | have an effect in suppressing the synthesis of melanin |  |
| dihydrophloretin |  |  |  | have an effect in suppressing the synthesis of melanin | Melanin production (%) ([1]; 0.01 μg/ml): 92%; Melanin production (%) ([1]; 0.03 μg/ml): 80%; Melanin production (%) ([1]; 0.30 μg/ml): 65% |
| phlorezin |  |  |  | have an effect in suppressing the synthesis of melanin |  |
| phlorine |  |  |  | have an effect in suppressing the synthesis of melanin |  |
